Results on 1 molecule are retold here after patent publication US11572590B2, “Methods for evaluating tumor cell spheroids using 3D microfluidic cell culture device” (Dana-Farber Cancer Institute, Inc., priority 2017, dated 2023).

Experiment in all cases: SelectScreen Kinase Profiling, single point inhibition and IC50 for off-target kinases
What all share (format): biochemical

Assay [1] concerns the target T1, off-target kinases (Homo sapiens, UniProt O00329).
T1 sequence (O00329 1-1044): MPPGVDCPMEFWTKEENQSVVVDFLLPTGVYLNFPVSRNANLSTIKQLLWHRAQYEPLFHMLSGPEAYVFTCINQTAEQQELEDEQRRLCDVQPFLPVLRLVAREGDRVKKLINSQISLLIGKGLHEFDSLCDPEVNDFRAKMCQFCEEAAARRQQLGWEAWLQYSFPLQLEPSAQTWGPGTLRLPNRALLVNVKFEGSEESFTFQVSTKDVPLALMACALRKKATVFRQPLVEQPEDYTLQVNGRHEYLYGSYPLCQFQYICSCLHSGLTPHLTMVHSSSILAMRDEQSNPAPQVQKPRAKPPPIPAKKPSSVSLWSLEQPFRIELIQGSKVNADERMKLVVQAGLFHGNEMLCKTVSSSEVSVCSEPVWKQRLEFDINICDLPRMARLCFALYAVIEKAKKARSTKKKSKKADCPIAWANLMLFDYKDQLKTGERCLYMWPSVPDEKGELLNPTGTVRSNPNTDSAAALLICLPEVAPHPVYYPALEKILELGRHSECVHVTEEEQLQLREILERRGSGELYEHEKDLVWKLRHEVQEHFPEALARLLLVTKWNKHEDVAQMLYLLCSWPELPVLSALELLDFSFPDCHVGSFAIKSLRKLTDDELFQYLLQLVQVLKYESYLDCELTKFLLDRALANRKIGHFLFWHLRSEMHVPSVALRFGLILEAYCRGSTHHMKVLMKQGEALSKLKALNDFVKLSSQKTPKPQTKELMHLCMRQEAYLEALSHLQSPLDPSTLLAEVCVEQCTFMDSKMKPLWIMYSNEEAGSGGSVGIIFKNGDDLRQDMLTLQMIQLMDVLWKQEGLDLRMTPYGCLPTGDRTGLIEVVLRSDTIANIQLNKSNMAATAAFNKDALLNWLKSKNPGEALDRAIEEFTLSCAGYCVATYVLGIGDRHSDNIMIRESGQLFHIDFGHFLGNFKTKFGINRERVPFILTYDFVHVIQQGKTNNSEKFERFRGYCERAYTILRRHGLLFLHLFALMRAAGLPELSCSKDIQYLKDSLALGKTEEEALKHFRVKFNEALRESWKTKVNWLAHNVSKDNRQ
Particulars: PIK3CD/PIK3R1 (p110 delta/p85 alpha), Adapta, ATP Km app.

Assay [2] addresses off-target kinases (Homo sapiens, UniProt P37023). The following applies: ACVRL1 (ALK1), LanthaScreen Binding.
Assay [3] addresses off-target kinases (Homo sapiens, UniProt P49674).
The target in assay [4] is T2, off-target kinases (Homo sapiens, UniProt Q9UEE5).
T2 sequence (Q9UEE5 1-414): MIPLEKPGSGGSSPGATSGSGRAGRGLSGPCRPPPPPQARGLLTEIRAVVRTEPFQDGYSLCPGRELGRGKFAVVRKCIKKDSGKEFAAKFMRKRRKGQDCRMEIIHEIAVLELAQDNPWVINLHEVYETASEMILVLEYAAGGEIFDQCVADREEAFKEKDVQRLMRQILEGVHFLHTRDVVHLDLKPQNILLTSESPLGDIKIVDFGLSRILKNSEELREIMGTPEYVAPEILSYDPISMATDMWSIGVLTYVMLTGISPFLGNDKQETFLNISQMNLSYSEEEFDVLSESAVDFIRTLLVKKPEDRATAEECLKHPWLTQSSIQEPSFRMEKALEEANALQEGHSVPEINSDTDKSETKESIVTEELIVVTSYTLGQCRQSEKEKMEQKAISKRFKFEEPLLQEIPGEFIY
Particulars: STK17A (DRAK1), LanthaScreen Binding.

Assay [5] addresses off-target kinases (Homo sapiens, UniProt Q9UQM7).

Read-outs that look alike come from different tables or passages of the source.

Sequence of off-target kinases (Homo sapiens, UniProt P49674) (P49674 whole entry): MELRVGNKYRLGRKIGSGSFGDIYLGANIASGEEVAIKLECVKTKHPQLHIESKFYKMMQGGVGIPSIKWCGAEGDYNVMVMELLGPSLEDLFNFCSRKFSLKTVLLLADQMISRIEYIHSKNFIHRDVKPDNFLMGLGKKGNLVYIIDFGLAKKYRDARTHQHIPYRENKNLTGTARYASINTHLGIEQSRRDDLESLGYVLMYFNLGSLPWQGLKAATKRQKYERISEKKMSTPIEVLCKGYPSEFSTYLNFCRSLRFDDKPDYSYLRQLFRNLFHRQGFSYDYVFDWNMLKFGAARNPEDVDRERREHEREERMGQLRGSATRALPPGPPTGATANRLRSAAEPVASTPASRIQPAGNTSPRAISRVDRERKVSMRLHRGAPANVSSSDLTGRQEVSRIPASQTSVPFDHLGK
Sequence of off-target kinases (Homo sapiens, UniProt Q9UQM7) (Q9UQM7 whole entry): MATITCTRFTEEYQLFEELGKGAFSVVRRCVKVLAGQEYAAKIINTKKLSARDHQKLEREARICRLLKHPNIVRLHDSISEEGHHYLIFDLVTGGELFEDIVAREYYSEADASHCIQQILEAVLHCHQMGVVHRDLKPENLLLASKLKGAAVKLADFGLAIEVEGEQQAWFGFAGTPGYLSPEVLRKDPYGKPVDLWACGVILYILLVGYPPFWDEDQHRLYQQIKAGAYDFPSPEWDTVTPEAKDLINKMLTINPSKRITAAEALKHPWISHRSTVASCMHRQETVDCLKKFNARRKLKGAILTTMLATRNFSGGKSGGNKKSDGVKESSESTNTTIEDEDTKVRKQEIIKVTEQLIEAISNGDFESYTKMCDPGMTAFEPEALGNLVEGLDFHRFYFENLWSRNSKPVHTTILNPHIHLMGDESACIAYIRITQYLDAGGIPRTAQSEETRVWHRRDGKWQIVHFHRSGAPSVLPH
Sequence of off-target kinases (Homo sapiens, UniProt P37023) (P37023 22-503): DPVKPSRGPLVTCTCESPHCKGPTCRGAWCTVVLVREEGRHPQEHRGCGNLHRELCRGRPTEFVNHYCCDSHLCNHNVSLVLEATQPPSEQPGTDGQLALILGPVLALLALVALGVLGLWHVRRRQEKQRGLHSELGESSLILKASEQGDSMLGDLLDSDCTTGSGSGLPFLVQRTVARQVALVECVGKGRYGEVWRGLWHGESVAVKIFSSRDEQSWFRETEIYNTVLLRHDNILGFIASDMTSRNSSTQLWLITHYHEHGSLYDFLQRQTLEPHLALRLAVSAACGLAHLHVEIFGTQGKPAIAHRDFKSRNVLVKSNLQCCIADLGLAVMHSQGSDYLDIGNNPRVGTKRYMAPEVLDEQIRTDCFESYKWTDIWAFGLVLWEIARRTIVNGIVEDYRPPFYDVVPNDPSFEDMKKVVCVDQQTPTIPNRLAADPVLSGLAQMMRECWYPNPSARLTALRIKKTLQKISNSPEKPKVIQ

For the molecule `N#Cc1cc(-c2ncnc(Nc3ccc(N4CCN(C5COC5)CC4)cc3)n2)ccc1OC1CCOCC1` [Compound 1, 5-(4-((4-(4-(oxetan-3-yl)piperazin-1-yl)phenyl)amino)-1,3,5-triazin-2-yl)-2-((tetrahydro-2H-pyran-4-yl)oxy)benzonitrile], the inhibition at off-target kinases [1] (read-out: % Inhibition 1) stood at 22%; at off-target kinases [1] (read-out: % Inhibition 2), 9%; on off-target kinases [1] (read-out: % Inhibition Avg) it was 16%; on off-target kinases [2] (read-out: % Inhibition 1) it was 33%; on off-target kinases [2] (read-out: % Inhibition 2), 38%; at off-target kinases [2] (read-out: % Inhibition Avg), 35%. Further, the inhibition is 4% on off-target kinases [3] (CSNK1E (CK1 epsilon), ZLYTE, ATP Km app, read-out: % Inhibition 2); 1% on off-target kinases [3] (CSNK1E (CK1 epsilon), ZLYTE, ATP Km app, read-out: % Inhibition Avg); -2% on off-target kinases [3] (read-out: % Inhibition 1); 101% on off-target kinases [4] (read-out: % Inhibition 1); 101% on off-target kinases [4] (read-out: % Inhibition 2); 101% on off-target kinases [4] (read-out: % Inhibition Avg). Besides, the inhibition at off-target kinases [5] (CAMK2A (CaMKII alpha), ZLYTE, ATP Km app, read-out: % Inhibition 1) turned out to be 4%; at off-target kinases [5] (CAMK2A (CaMKII alpha), ZLYTE, ATP Km app, read-out: % Inhibition Avg) it was 2%; on off-target kinases [5] (read-out: % Inhibition 2) it was 0%.
